ChEMBL document CHEMBL1909294, “Translating clinical findings into knowledge in drug safety evaluation--drug induced liver injury prediction system (DILIps)” (PLoS Comput Biol, 2011)

Key:
[1] = tested on: Hepatotoxicity;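 as to HepSE bilirubinemia: bilirubinemia hepatic side effect score drawn from the DILIps training data, a prediction system for drug-induced liver injury; call rule not given here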;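 as to HepSE cholecystitis: Cholecystitis-related hepatic side effect score drawn from the DILIps (drug-induced liver injury prediction) training data set; call rule not given here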;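 as to HepSE cholelithiasis: hepatic side effect score for cholelithiasis, drawn from the DILIps training data for predicting drug-induced liver injury; call rule not given here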;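 as to HepSE cirrhosis: cirrhosis hepatic side effect score taken from the DILIps (drug-induced liver injury prediction) training set; call rule not given here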;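 as to HepSE elevated liver function tests: hepatic side effect score for raised liver function tests, as recorded in the DILIps training set used for predicting drug-induced liver injury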; as to HepSE hepatic failure: call rule not given here;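 as to HepSE hepatomegaly: hepatic side effect score for hepatomegaly, taken from the training set of the DILIps drug-induced liver injury prediction system; call rule not given here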
[2] = tested on: Hepatotoxicity; remark: listed apart in the source;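 as to HepSE bilirubinemia: bilirubinemia hepatic side effect score drawn from the DILIps training data, a prediction system for drug-induced liver injury; call rule not given here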;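 as to HepSE cholecystitis: Cholecystitis-related hepatic side effect score drawn from the DILIps (drug-induced liver injury prediction) training data set; call rule not given here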;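 as to HepSE cholelithiasis: hepatic side effect score for cholelithiasis, drawn from the DILIps training data for predicting drug-induced liver injury; call rule not given here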;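 as to HepSE cirrhosis: cirrhosis hepatic side effect score taken from the DILIps (drug-induced liver injury prediction) training set; call rule not given here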;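 as to HepSE elevated liver function tests: hepatic side effect score for raised liver function tests, as recorded in the DILIps training set used for predicting drug-induced liver injury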; as to HepSE hepatic failure: call rule not given here
[3] = tested on: Hepatotoxicity; remark: listed apart in the source;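 as to HepSE bilirubinemia: bilirubinemia hepatic side effect score drawn from the DILIps training data, a prediction system for drug-induced liver injury; call rule not given here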;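 as to HepSE cholecystitis: Cholecystitis-related hepatic side effect score drawn from the DILIps (drug-induced liver injury prediction) training data set; call rule not given here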;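 as to HepSE cholelithiasis: hepatic side effect score for cholelithiasis, drawn from the DILIps training data for predicting drug-induced liver injury; call rule not given here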;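 as to HepSE cirrhosis: cirrhosis hepatic side effect score taken from the DILIps (drug-induced liver injury prediction) training set; call rule not given here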;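 as to HepSE elevated liver function tests: hepatic side effect score for raised liver function tests, as recorded in the DILIps training set used for predicting drug-induced liver injury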; as to HepSE hepatic failure: call rule not given here
[4] = tested on: Hepatotoxicity; remark: listed apart in the source;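 as to HepSE bilirubinemia: bilirubinemia hepatic side effect score drawn from the DILIps training data, a prediction system for drug-induced liver injury; call rule not given here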;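 as to HepSE cholecystitis: Cholecystitis-related hepatic side effect score drawn from the DILIps (drug-induced liver injury prediction) training data set; call rule not given here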;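 as to HepSE cholelithiasis: hepatic side effect score for cholelithiasis, drawn from the DILIps training data for predicting drug-induced liver injury; call rule not given here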;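 as to HepSE cirrhosis: cirrhosis hepatic side effect score taken from the DILIps (drug-induced liver injury prediction) training set; call rule not given here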;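 as to HepSE elevated liver function tests: hepatic side effect score for raised liver function tests, as recorded in the DILIps training set used for predicting drug-induced liver injury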; as to HepSE hepatic failure: call rule not given here
[5] = tested on: Hepatotoxicity; remark: listed apart in the source; as to HepSE hepatic failure: call rule not given here
[6] = tested on: Hepatotoxicity; remark: listed apart in the source; as to HepSE hepatic failure: call rule not given here
[7] = tested on: Hepatotoxicity; remark: listed apart in the source
[8] = tested on: Hepatotoxicity; remark: listed apart in the source
[9] = tested on: Hepatotoxicity; remark: listed apart in the source
[10] = tested on: Hepatotoxicity; remark: listed apart in the source
[11] = tested on: Hepatotoxicity; remark: listed apart in the source
[12] = tested on: Hepatotoxicity; remark: listed apart in the source
[13] = tested on: Hepatotoxicity; remark: listed apart in the source
[14] = tested on: Hepatotoxicity; remark: listed apart in the source

| SMILES | HepSE_bilirubinemia [1] | HepSE_cholecystitis [2] | HepSE_cholelithiasis [3] | HepSE_cirrhosis [4] | HepSE_elevated liver function tests [5] | HepSE_hepatic failure [6] | HepSE_hepatic necrosis [7] | HepSE_hepatitis [8] | HepSE_hepatomegaly [9] | HepSE_jaundice [10] | HepSE_liver disease [11] | HepSE_liver fatty [12] | HepSE_liver function tests abnormal [13] | HepSE_Combined Scores [14] | also measured |
| --- | --- | --- | --- | --- | --- | --- | --- | --- | --- | --- | --- | --- | --- | --- | --- |
| N#Cc1ccc(C(c2ccc(C#N)cc2)n2cncn2)cc1 [LETROZOLE] | 0 | 0 | 0 | 0 | 0 | 0 | 0 | 0 | 0 | 0 | 0 | 0 | 0 | 0 | – |
| Nc1nc2c(c(=O)[nH]1)N(C=O)C(CNc1ccc(C(=O)N[C@@H](CCC(=O)O)C(=O)O)cc1)CN2 (some centres not stated) [LEUCOVORIN] | 0 | 0 | 0 | 0 | 0 | 0 | 0 | 0 | 0 | 0 | 0 | 0 | 0 | 0 | – |
| CC(=O)O.CCNC(=O)[C@@H]1CCCN1C(=O)[C@H](CCCNC(=N)N)NC(=O)[C@H](CC(C)C)NC(=O)[C@@H](CC(C)C)NC(=O)[C@H](Cc1ccc(O)cc1)NC(=O)[C@H](CO)NC(=O)[C@H](Cc1c[nH]c2ccccc12)NC(=O)[C@H](Cc1c[nH]cn1)NC(=O)[C@@H]1CCC(=O)N1 [LEUPROLIDE ACETATE] | 0 | 0 | 0 | 0 | 0 | 0 | 0 | 0 | 1 | 0 | 0 | 0 | 1 | 2 | – |
| CC(C)(C)NC[C@H](O)COc1cccc2c1CCCC2=O [LEVOBUNOLOL] | 0 | 0 | 0 | 0 | 0 | 0 | 0 | 0 | 0 | 0 | 0 | 0 | 0 | 0 | – |
| C[C@@H]1CN([C@H]2CC[C@](C#N)(c3ccc(F)cc3)CC2)CC[C@]1(C(=O)O)c1ccccc1 [LEVOCABASTINE] | 0 | 0 | 0 | 0 | 0 | 0 | 0 | 0 | 0 | 0 | 0 | 0 | 0 | 0 | – |
| C#C[C@]1(O)CC[C@H]2[C@@H]3CCC4=CC(=O)CC[C@@H]4[C@H]3CC[C@@]21CC [LEVONORGESTREL] | – | – | – | – | – | – | – | – | – | – | – | – | – | – | HepSE_bilirubinemia ([1]; Liver): 0; HepSE_cholecystitis ([2]; Liver): 0; HepSE_cholelithiasis ([3]; Liver): 0; HepSE_cirrhosis ([4]; Liver): 0; HepSE_elevated liver function tests ([5]; Liver): 0; HepSE_hepatic failure ([6]; Liver): 0; HepSE_hepatic necrosis ([7]; Liver): 0; HepSE_hepatitis ([8]; Liver): 0; HepSE_hepatomegaly ([9]; Liver): 0; HepSE_jaundice ([10]; Liver): 0; HepSE_liver disease ([11]; Liver): 0; HepSE_liver fatty ([12]; Liver): 0; HepSE_liver function tests abnormal ([13]; Liver): 0; HepSE_Combined Scores ([14]; Liver): 0 |
| N[C@@H](Cc1cc(I)c(Oc2cc(I)c(O)c(I)c2)c(I)c1)C(=O)O [LEVOTHYROXINE] | 0 | 0 | 0 | 0 | 0 | 0 | 0 | 0 | 0 | 0 | 0 | 0 | 0 | 0 | – |
| CCC[C@@H]1C[C@@H](C(=O)N[C@@H]([C@H]2O[C@H](SC)[C@H](O)[C@@H](O)[C@H]2O)[C@@H](C)O)N(C)C1 [LINCOMYCIN] | 0 | 0 | 0 | 0 | 0 | 0 | 0 | 0 | 0 | 1 | 0 | 0 | 1 | 2 | – |
| Cl[C@H]1[C@H](Cl)[C@@H](Cl)[C@@H](Cl)[C@H](Cl)[C@H]1Cl [LINDANE] | – | – | – | – | – | – | – | – | – | – | – | – | – | – | HepSE_bilirubinemia ([1]; Liver): 0; HepSE_cholecystitis ([2]; Liver): 0; HepSE_cholelithiasis ([3]; Liver): 0; HepSE_cirrhosis ([4]; Liver): 0; HepSE_elevated liver function tests ([5]; Liver): 0; HepSE_hepatic failure ([6]; Liver): 0; HepSE_hepatic necrosis ([7]; Liver): 0; HepSE_hepatitis ([8]; Liver): 0; HepSE_hepatomegaly ([9]; Liver): 0; HepSE_jaundice ([10]; Liver): 0; HepSE_liver disease ([11]; Liver): 0; HepSE_liver fatty ([12]; Liver): 0; HepSE_liver function tests abnormal ([13]; Liver): 0; HepSE_Combined Scores ([14]; Liver): 0 |
| CC(=O)NC[C@H]1CN(c2ccc(N3CCOCC3)c(F)c2)C(=O)O1 [LINEZOLID] | 0 | 0 | 0 | 0 | 0 | 0 | 0 | 0 | 0 | 1 | 0 | 0 | 1 | 2 | – |
| N[C@@H](Cc1cc(I)c(Oc2ccc(O)c(I)c2)c(I)c1)C(=O)O [LIOTHYRONINE] | 0 | 0 | 0 | 0 | 0 | 0 | 0 | 0 | 0 | 0 | 0 | 0 | 0 | 0 | – |
| NCCCC[C@H](N[C@@H](CCc1ccccc1)C(=O)O)C(=O)N1CCC[C@H]1C(=O)O [LISINOPRIL ANHYDROUS] | 0 | 0 | 0 | 0 | 0 | 1 | 0 | 1 | 0 | 1 | 0 | 0 | 0 | 3 | – |
| [Li] [LITHIUM] | 0 | 0 | 0 | 0 | 0 | 0 | 0 | 0 | 0 | 0 | 0 | 0 | 0 | 0 | – |
